Assay results reported in the supplement of paper PMC13380429.
Counter-ions that a name gives are not always drawn.

What was measured:
Conditions in all cases: 72 h
Caco-2 [1] = assay: cell viability relative to DMSO; higher = less toxic
Calu-3 [2] = assay: as above
Vero E6 [3] = assay: as above
HepG2 [4] = assay: as above
U2OS [5] = assay: as above
Caco-2 [6] = assay: drug sensitivity score (DSS) for viability; higher = more toxic; extreme values may be limits of the assay
Calu-3 [7] = assay: as above
Vero E6 [8] = assay: as above
HepG2 [9] = assay: as above
U2OS [10] = assay: as above
Caco-2 [11] = assay: relative viability EC50 (midpoint between 100% and the lowest measured viability); higher = less toxic
Calu-3 [12] = assay: as above
Vero E6 [13] = assay: as above
HepG2 [14] = assay: as above
U2OS [15] = assay: as above

Structure (SMILES)	cell viability (Caco-2 [1]; 1 nM) [%]	cell viability (Caco-2 [1]; 10 nM) [%]	cell viability (Caco-2 [1]; 100 nM) [%]	cell viability (Caco-2 [1]; 1000 nM) [%]	cell viability (Caco-2 [1]; 10000 nM) [%]	cell viability (Calu-3 [2]; 1 nM) [%]	cell viability (Calu-3 [2]; 10 nM) [%]	cell viability (Calu-3 [2]; 100 nM) [%]	cell viability (Calu-3 [2]; 1000 nM) [%]	cell viability (Calu-3 [2]; 10000 nM) [%]	cell viability (Vero E6 [3]; 1 nM) [%]	cell viability (Vero E6 [3]; 10 nM) [%]	cell viability (Vero E6 [3]; 100 nM) [%]	cell viability (Vero E6 [3]; 1000 nM) [%]	cell viability (Vero E6 [3]; 10000 nM) [%]	cell viability (HepG2 [4]; 1 nM) [%]	cell viability (HepG2 [4]; 10 nM) [%]	cell viability (HepG2 [4]; 100 nM) [%]	cell viability (HepG2 [4]; 1000 nM) [%]	cell viability (HepG2 [4]; 10000 nM) [%]	cell viability (U2OS [5]; 1 nM) [%]	cell viability (U2OS [5]; 10 nM) [%]	cell viability (U2OS [5]; 100 nM) [%]	cell viability (U2OS [5]; 1000 nM) [%]	cell viability (U2OS [5]; 10000 nM) [%]	drug sensitivity score (Caco-2 [6])	drug sensitivity score (Calu-3 [7])	drug sensitivity score (Vero E6 [8])	drug sensitivity score (HepG2 [9])	drug sensitivity score (U2OS [10])	relative viability EC50 (Caco-2 [11]) [µM]	relative viability EC50 (Calu-3 [12]) [µM]	relative viability EC50 (Vero E6 [13]) [µM]	relative viability EC50 (HepG2 [14]) [µM]	relative viability EC50 (U2OS [15]) [µM]
CN1[C@@H]2CC[C@H]1C[C@@H](OC(=O)C(CO)c1ccccc1)C2 (stereo not given in full) [ATROPINE SULFATE]	93.2	95	67.1	99.6	98.5	96.2	102	88.4	104	96.1	112	99.7	109	99.4	106	102	91.5	105	84.3	98.2	96.5	102	102	102	103	0	0	0	0	0	> 10	> 10	> 10	> 10	> 10
O=C(c1ccc(Cl)o1)N1CC2CNCC2C1 (stereo not given) [AZD1446]	103	97.8	97	103	103	112	89.8	94.4	89.4	107	96.4	98.2	98.7	99.6	91.3	99.3	93.1	90.2	99.1	88	99.6	98.6	96.1	97.7	97.8	0	0	0	0	0	> 10	> 10	> 10	> 10	> 10
C[C@]12CC[C@H](O)CC1=CC[C@@H]1[C@@H]2CC[C@]2(C)C(c3cccnc3)=CC[C@@H]12 [Abiraterone (CB-7598)]	87.1	92.3	100	101	98.1	96	107	100	98.3	100	99.9	95.2	93.9	96.4	112	97.7	92.7	103	95.1	103	95.3	101	95.7	103	104	0	0	0	0	0	> 10	> 10	> 10	> 10	> 10
CC1(C)C(=O)NC2=C1C(=O)C(=O)c1ccccc12 [BVT-948]	92.1	104	99.6	86.8	0.9	98	101	104	102	20.3	98.3	102	104	97.9	19.6	97.5	95.4	88.7	94.8	21.3	101	98	95.8	100	0.1	7.7	4.2	4.7	5.1	5.6	2.09	3.34	2.97	2.63	3.17
C[C@H]1C[C@H]2[C@@H]3CCC4=CC(=O)C=C[C@]4(C)[C@H]3C(=O)C[C@]2(C)[C@@]1(O)C(=O)CO [Betapar (Meprednisone)]	86.1	91.1	87.4	103	94.8	92.9	93.2	91.5	91	97.8	103	102	101	99.7	97.4	83.6	97.3	95.5	95.9	86.5	97.6	98.3	96	98.2	95.1	0	0	0	0	0	> 10	> 10	> 10	> 10	> 10
COc1cc2nc(N3CCC(N4CCCCC4)CC3)nc(NC3CCCCCC3)c2cc1OC [C-021]	101	101	108	93.4	23.4	98.4	100	94.7	90	4.2	96.8	102	99.1	97.5	0.8	108	93.7	99.4	101	-0.2	99.4	98.7	99.1	94.6	16.7	5.3	6.9	5.9	5.5	5.4	2.47	2.31	2.98	3.24	2.65
Cc1cc2c(C(N)=O)cccc2n1-c1nc2c(c(NCc3ccccc3)n1)COCC2 [CB-5083]	97.8	92.8	103	50.1	13.6	101	94.3	104	47.1	1.7	98.8	103	102	1.1	-0.4	107	95	104	2.8	-0.2	100	102	98.4	87.1	-0.3	10.8	11.9	17.6	17.3	7.7	0.883	0.941	0.338	0.36	2.12
